How the values were obtained:
Assay in all cases: c-ponatinib pulldown LC-MS/MS
Assay type in all cases: binding
CCT2 = molecular target: T1, CCT2 (Homo sapiens, UniProt P78371)
T1 sequence (P78371 1-535): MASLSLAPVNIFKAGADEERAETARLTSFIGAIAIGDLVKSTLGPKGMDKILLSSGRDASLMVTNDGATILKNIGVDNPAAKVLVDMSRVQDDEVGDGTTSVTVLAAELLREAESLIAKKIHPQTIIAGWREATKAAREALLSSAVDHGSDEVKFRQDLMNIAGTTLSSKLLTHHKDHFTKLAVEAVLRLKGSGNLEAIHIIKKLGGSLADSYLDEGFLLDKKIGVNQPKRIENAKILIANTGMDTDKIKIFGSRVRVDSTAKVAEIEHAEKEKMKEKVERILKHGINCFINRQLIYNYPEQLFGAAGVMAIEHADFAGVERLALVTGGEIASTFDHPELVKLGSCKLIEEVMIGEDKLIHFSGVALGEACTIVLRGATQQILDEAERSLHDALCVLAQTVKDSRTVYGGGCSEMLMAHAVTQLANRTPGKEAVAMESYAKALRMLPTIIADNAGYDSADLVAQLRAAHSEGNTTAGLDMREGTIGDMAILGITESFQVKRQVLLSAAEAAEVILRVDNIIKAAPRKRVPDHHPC
How it was run: (§1)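 Read-out: interaction P-value combining Mascot scores, Phenyx scores and spectral counts (Fisher's method), plus fold reduction of median spectral counts on free-compound competition. Proteins were enriched from 10 mg cell lysate on c-ponatinib beads, then trypsin-digested for LC-MS/MS.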

CDK8 = CDK8 (Homo sapiens, UniProt P49336)
How it was run: as §1

HSPA5 = HSPA5 (Homo sapiens, UniProt P11021)
How it was run: as §1

RAF1 = RAF1 (Homo sapiens, UniProt P04049)
How it was run: as §1

HCK = HCK (Homo sapiens, UniProt P08631)
How it was run: as §1

MAPKAPK3 = MAPKAPK3 (Homo sapiens, UniProt Q16644)
How it was run: as §1

PLEKHF2 = molecular target: T2, PLEKHF2 (Homo sapiens, UniProt Q9H8W4)
T2 sequence (Q9H8W4 1-249): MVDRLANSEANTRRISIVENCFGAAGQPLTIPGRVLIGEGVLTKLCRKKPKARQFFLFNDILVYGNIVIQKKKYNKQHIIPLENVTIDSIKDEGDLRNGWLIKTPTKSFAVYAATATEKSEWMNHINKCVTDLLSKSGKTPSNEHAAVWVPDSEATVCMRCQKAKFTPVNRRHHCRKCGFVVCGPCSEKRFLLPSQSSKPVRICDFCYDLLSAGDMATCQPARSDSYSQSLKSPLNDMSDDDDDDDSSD
How it was run: as §1

Chain of HCK (P08631 whole entry): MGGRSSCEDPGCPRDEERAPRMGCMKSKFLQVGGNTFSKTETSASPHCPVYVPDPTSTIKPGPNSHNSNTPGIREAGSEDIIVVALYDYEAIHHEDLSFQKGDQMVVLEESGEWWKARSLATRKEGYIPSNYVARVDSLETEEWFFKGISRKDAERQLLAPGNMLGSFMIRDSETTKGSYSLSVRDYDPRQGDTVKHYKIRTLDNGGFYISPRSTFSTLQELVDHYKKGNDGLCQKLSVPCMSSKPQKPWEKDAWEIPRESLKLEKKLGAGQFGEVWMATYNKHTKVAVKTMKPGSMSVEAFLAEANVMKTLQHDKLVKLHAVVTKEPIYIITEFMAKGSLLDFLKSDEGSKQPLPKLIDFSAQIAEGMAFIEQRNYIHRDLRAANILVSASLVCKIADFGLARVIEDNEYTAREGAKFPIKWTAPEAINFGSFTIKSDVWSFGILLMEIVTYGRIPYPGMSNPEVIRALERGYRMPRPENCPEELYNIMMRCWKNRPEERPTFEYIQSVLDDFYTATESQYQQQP
Chain of CDK8 (P49336 whole entry): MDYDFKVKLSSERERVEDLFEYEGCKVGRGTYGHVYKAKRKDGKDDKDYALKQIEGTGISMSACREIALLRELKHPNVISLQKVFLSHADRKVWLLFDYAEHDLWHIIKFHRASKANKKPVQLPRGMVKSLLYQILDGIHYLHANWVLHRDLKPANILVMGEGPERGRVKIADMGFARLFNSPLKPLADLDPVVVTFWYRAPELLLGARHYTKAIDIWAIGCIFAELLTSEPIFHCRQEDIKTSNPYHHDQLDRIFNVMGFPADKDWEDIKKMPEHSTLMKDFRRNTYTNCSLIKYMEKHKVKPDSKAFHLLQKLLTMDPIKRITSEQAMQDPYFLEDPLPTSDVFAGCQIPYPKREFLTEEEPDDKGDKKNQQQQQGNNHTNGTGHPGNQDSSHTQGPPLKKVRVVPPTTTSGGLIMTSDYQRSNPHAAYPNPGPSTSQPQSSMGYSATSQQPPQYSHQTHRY
Chain of CDK8 (P24863 whole entry partner): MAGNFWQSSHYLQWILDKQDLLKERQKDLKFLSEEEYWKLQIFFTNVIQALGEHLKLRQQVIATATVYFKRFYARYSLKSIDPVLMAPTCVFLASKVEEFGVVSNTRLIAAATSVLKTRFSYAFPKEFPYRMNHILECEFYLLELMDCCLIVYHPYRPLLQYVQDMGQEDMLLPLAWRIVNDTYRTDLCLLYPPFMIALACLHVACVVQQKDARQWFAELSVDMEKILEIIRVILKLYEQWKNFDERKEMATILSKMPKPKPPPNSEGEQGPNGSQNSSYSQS
Chain of MAPKAPK3 (Q16644 whole entry): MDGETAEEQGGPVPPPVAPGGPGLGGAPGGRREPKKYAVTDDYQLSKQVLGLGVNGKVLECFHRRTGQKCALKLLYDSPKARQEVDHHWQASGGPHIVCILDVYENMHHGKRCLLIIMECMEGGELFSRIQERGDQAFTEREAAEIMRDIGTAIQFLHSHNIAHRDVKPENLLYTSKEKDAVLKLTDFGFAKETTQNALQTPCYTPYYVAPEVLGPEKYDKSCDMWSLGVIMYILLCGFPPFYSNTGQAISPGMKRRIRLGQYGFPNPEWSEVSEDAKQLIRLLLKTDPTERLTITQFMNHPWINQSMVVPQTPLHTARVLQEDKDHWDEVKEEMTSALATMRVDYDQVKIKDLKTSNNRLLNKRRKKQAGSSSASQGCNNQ
Chain of RAF1 (P04049 whole entry): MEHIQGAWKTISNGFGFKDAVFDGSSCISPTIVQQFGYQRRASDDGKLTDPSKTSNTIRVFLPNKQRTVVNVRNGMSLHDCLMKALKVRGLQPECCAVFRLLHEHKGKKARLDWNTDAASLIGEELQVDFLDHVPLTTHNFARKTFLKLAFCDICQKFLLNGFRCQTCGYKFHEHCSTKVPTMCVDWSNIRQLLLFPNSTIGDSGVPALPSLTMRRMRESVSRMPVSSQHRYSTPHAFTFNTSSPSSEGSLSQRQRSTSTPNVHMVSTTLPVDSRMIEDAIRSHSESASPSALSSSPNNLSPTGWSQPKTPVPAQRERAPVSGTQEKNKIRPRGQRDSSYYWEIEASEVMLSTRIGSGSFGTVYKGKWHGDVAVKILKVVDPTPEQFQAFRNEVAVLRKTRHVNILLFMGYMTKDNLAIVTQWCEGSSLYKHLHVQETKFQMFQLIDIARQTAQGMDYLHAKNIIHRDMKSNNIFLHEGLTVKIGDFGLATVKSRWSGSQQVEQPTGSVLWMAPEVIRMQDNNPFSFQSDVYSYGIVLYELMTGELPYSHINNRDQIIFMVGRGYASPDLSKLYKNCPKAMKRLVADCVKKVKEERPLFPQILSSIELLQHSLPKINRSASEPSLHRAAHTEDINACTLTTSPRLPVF
Chain of HSPA5 (P11021 19-654): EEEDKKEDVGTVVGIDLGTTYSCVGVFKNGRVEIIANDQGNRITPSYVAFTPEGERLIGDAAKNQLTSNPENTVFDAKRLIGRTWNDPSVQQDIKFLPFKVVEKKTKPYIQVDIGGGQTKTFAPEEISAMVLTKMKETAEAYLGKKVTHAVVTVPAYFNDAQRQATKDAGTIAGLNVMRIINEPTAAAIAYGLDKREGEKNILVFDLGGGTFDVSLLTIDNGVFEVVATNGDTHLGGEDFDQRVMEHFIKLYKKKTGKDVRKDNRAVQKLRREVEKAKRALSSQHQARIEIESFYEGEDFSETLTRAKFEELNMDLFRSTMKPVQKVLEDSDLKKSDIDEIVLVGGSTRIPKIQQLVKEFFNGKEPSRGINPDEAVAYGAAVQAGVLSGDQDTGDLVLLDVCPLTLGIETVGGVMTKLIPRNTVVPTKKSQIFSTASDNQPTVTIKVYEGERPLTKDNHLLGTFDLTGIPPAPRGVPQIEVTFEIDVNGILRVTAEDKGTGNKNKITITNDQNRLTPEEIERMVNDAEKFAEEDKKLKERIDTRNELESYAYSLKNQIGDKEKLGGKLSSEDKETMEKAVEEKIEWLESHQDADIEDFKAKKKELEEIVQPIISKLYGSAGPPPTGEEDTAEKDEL

Av. SC comp. (CCT2; + free ponatinib): 0 | Total SC comp. (CCT2; + free ponatinib): 0 | Av. SC (CCT2; no competitor): 3.5 | Total SC (CCT2; no competitor): 14 | Av. SC comp. (CDK8; + free ponatinib): 0 | Total SC comp. (CDK8; + free ponatinib): 0 | Av. SC (CDK8; no competitor): 3.75 | Total SC (CDK8; no competitor): 15 | Av. SC comp. (HSPA5; + free ponatinib): 2.75 | Total SC comp. (HSPA5; + free ponatinib): 11 | Av. SC (HSPA5; no competitor): 7 | Total SC (HSPA5; no competitor): 28 | Av. SC comp. (RAF1; + free ponatinib): 0 | Total SC comp. (RAF1; + free ponatinib): 0 | Av. SC (RAF1; no competitor): 1.25 | Total SC (RAF1; no competitor): 5 | Av. SC comp. (HCK; + free ponatinib): 0 | Total SC comp. (HCK; + free ponatinib): 0 | Av. SC (HCK; no competitor): 6 | Total SC (HCK; no competitor): 24 | Av. SC comp. (MAPKAPK3; + free ponatinib): 0 | Total SC comp. (MAPKAPK3; + free ponatinib): 0 | Av. SC (MAPKAPK3; no competitor): 10.5 | Total SC (MAPKAPK3; no competitor): 42 | Av. SC comp. (PLEKHF2; + free ponatinib): 0 | Total SC comp. (PLEKHF2; + free ponatinib): 0 | Av. SC (PLEKHF2; no competitor): 8.25 | Total SC (PLEKHF2; no competitor): 33
SMILES: Cc1ccc(C(=O)Nc2ccc(CN3CCN(CCCN)CC3)c(C(F)(F)F)c2)cc1C#Cc1cnc2cccnn12 [c-ponatinib]
